Results taken from patent US5051519A, “Novel antiviral and antitumor terpene hydroquinones and methods of use” (Harbor Branch Oceanographic Institution, Inc., priority 1990, dated 1991).
pIC50: −log10 of the molar value. Converted amounts (≈) assume the structure as drawn.

Key:
MDCK cells = experiment: Growth inhibition (cytotoxicity) of MDCK cells in the PR-8 antiviral assay, neutral red; format: cell-based, canine (Canis familiaris); settings: Canis lupus familiaris, 50% growth inhibition; for pIC50: molar restatement of μg per 200 μl value; for IC50: 72 h, read on day 3
[1] = tested on: P388 murine leukemia cells; experiment: Antiproliferative effect against murine P388 leukemia cells, MTT; format: cell-based; settings: Mus musculus, 48 hour exposure
Experimental: The crude ethanolic extract and pure compound was tested for toxicity against murine P388 leukemia cells. P388 cells obtained from J. Mayo, National Cancer Institute, Bethesda, Md., were maintained in Roswell Park Memorial Institute medium 1640 (RPMI-1640) supplemented with 10% horse serum. All cell lines were cultured in plastic tissue culture flasks and kept in an incubator at 37° C. in humidified air containing 5% CO2. Antibiotic-free stock cultures of P388 cells were subcultured to 10^5 cells/ml by dilution in fresh growth medium at 2-3 day intervals. The mean generation time of primary cultures was 14-17 hours.
To assess the antiproliferative effects of agents against P388 cells, 200 μl cultures (96-well tissue culture plates, Nunc, Denmark) were established at 1×10^6 cells/ml in drug-free medium or medium containing the crude extract at a final dilution of 1:500 of compound 1 or 2 at various concentrations. Solvent for all dilutions was methanol, which was removed from plates under vacuum. All experimental cultures were initiated in medium containing Gentamicin sulfate ([…]; Schering Corporation, Kenilworth, N.J.). After 48 hour exposures, P388 cells were enumerated using 3-[4,5-dimethylthiazol-2-yl]-2,5-diphenyltetrazolium bromide (MTT) as described below (Alley, M. C. et al. [1988] Cancer Res. 48:589).
To quantitate the effects on cell proliferation, 75 μl of warm growth medium containing 5 mg/ml MTT was added to each well and cultures were returned to the incubator for 90 minutes. To spectrophotometrically quantitate formation of reduced formazan, plates were centrifuged (900 xg, 5 minutes), culture fluids removed by aspiration, and 200 μl of acidified isopropanol (2 ml concentrated HCl/liter isopropanol) added per well. The absorbance of the resulting solutions were measured at 570 nm with a plate reader (MR700 Microplate Reader, Dynatech Laboratories, Chantilly, Va.). […] A linear relationship between P388 cell number and formazan production was found over the range of cell densities observed in these experiments.

[2] = tested on: influenza virus type A strain PR8; experiment: Antiviral assay: cytopathic effect (CPE) reduction, influenza virus type A strain PR8 in MDCK cells, neutral red dye uptake; format: cell-based, Influenza A strain A/PR/8/34 (HINI)

Compound	pIC50 (MDCK cells)	IC50 (MDCK cells) [mg/L]	IC50 [1] [mg/L]	in vitro therapeutic index (TI) ([2]; dog, mdck)	activity against influenza virus type A strain PR-8 (in words) [2]	in vitro therapeutic index (TI) ([2]; ratio of IC50/EC50)
COc1ccc(OC(C)=O)c2c1CC1(C)C(C)CCC3C(C)(C)CCCC31O2 (stereo not shown) [Compound 2]	4.82	5	23.8 (≈ 61.6 µM)	100		
C[C@H]1CC[C@H]2C(C)(C)CCC[C@]23Oc2ccc(O)cc2C[C@]13C [aureol, reference compound]	4.94	3.65	9 (≈ 28.6 µM)		strong antiviral activity	116
COc1ccc(O)c2c1CC1(C)C(C)CCC3C(C)(C)CCCC31O2 (stereo not shown) [Compound 1]	4.72	6.5	13 (≈ 37.7 µM)	9		
